This experiment deals with mouse syngeneic tumor cell lines (LL2, Hepa1-6, B16F10, CT26, EMT6/P, Renca). The experiment can be described thus: Cell viability (CellTiter-Fluor), all six mouse syngeneic tumor cell lines. In kind it is cell-based. Conditions: 0-25 mM, 72 hours, dose dependent. The procedure:
The sensitivity of mouse syngeneic tumor cell lines to Coenzyme Q10 was evaluated in vitro. Six mouse syngeneic tumor cell lines from different tissue types were exposed to increasing concentrations of Coenzyme Q10 (0-25 mM) at 37° C. for 72 hours. Cell viability was measured using CellTiter-Fluor kit (Promega, Madison, Wis.). Graphs and IC50 values were calculated using GraphPad Prism using data for at least three independent experiments. Mouse syngeneic tumor cell lines evaluated were Lewis lung carcinoma (LL2), hepatoma (Hepa1-6) skin melanoma (B16F10), colon cancer (CT26), mammary gland adenocarcinoma (EMT6/P), and renal adenocarcinoma (Renca). As shown in FIGS. 24A-24F, Coenzyme Q10 reduced viability of all of the tumor cell lines in a dose dependent manner.

The values below come from patent US20180021270A1, “METHODS FOR THE TREATMENT OF CANCER USING COENZYME Q10 IN COMBINATION WITH IMMUNE CHECKPOINT MODULATORS” (Berg LLC, priority 2016, published 2018).

SMILES strings stand for the structures.

As for `COC1=C(OC)C(=O)C(C/C=C(\C)CC/C=C(\C)CC/C=C(\C)CC/C=C(\C)CC/C=C(\C)CC/C=C(\C)CC/C=C(\C)CC/C=C(\C)CC/C=C(\C)CCC=C(C)C)=C(C)C1=O` [Coenzyme Q10], the “Viability of all of the tumor cell lines” value is reported as “reduced”.
